PMC5224920, “Assessing the mechanism and therapeutic potential of modulators of the human Mediator complex-associated protein kinases” (eLife, 2016)
Like-named read-outs stand apart in the source and are kept apart here.

What was measured:
[1] = Mouse PK; type: in vivo
[2] = Rat PK; type: in vivo
[3] = Dog PK; type: in vivo; conditions: for Dog PK Cl / Dog PK Vd: 0.2mg/kg i.v.
[4] = tested on: protein kinases; assay: Kinase selectivity panel at 1 µM; type: biochemical; conditions: 1µM test compound
[5] = tested on: COLO205; assay: 24 hour TCF/LEF reporter assay, COLO205; type: cell-based; conditions: Homo sapiens, COLO 205, 24 h, read-out: 24 hour TCF/LEF Reporter assay IC50
[6] = tested on: DLD1; assay: 24 hour TCF/LEF reporter assay, DLD1; type: cell-based; conditions: Homo sapiens, DLD-1, 24 h, read-out: 24 hour TCF/LEF Reporter assay IC50
[7] = tested on: LS180; assay: 24 hour TCF/LEF reporter assay, LS180; type: cell-based; conditions: Homo sapiens, LS180, 24 h, read-out: 24 hour TCF/LEF Reporter assay IC50
[8] = tested on: LS174T; assay: 24 hour TCF/LEF reporter assay, LS174T; type: cell-based; conditions: Homo sapiens, read-out: 24 hour TCF/LEF Reporter assay IC50
[9] = tested on: RKO; assay: 24 hour reporter assay, RKO negative control (EEF1A1 promoter-reporter); type: cell-based; conditions: Homo sapiens, RKO, read-out: 24 hour TCF/LEF Reporter assay IC50
[10] = tested on: SW837; assay: 24 hour TCF/LEF reporter assay, SW837; type: cell-based; conditions: Homo sapiens, SW837, 24 h, read-out: 24 hour TCF/LEF Reporter assay IC50
[11] = tested on: SW620 human colorectal cancer xenografts; assay: SW620 human colorectal cancer xenograft, tumor growth inhibition; type: in vivo
[12] = tested on: LS1034 colorectal cancer xenografts; assay: LS1034 colorectal cancer xenograft, tumor growth inhibition; type: in vivo, human
[13] = tested on: p-STAT1^SER727 in SW620 tumor xenografts; assay: p-STAT1 SER727 level in SW620 xenografts (pharmacodynamics); type: in vivo, human
Experimental: As with 3, 10 mg/kg of 4 inhibited the pathway biomarker for 6 hr, but was not sufficient for antitumor activity in SW620 xenografts (Figure 2A and Figure 2—source data 1).

[14] = tested on: MV-4-11 AML xenograft; assay: MV-4-11 AML subcutaneous xenograft; type: in vivo, human
[15] = tested on: Wistar rats; assay: 14-day oral tolerability study in rats; type: in vivo; conditions: for Target organs: Rat
Source text: Animals were culled 24 hr after the last dose. Additional satellite animals for toxicokinetic evaluations were included.

[16] = tested on: RKO; assay: 96 hour proliferation GI50, RKO; conditions: Homo sapiens, read-out: 96 hour GI50
[17] = tested on: HT29; assay: 96 hour proliferation GI50, HT29; conditions: Homo sapiens, HT-29, 96 h, read-out: 96 hour GI50
[18] = tested on: DLD1; assay: 96 hour proliferation GI50, DLD1; conditions: Homo sapiens, DLD-1, 96 h, read-out: 96 hour GI50
[19] = tested on: SW948; assay: 96 hour proliferation GI50, SW948; conditions: Homo sapiens, SW948, 96 h, read-out: 96 hour GI50
[20] = tested on: LS513; assay: 96 hour proliferation GI50, LS513; conditions: Homo sapiens, LS-513, 96 h, read-out: 96 hour GI50
[21] = tested on: LS180; assay: 96 hour proliferation GI50, LS180; conditions: Homo sapiens, LS180, 96 h, read-out: 96 hour GI50
[22] = tested on: SW620; assay: 96 hour proliferation GI50, SW620; conditions: Homo sapiens, SW-620, 96 h, read-out: 96 hour GI50
[23] = tested on: SW837; assay: 96 hour proliferation GI50, SW837; conditions: Homo sapiens, SW837, 96 h, read-out: 96 hour GI50
[24] = tested on: LS174T; assay: 96 hour proliferation GI50, LS174T; conditions: Homo sapiens, read-out: 96 hour GI50
[25] = tested on: COLO205; assay: 96 hour proliferation GI50, COLO205; conditions: Homo sapiens, COLO 205, 96 h, read-out: 96 hour GI50
[26] = tested on: Beagle dogs; assay: 14-day oral tolerability study in dogs; conditions: for Target organs: Dog; for Fold of efficacious dose; 10 mg/kg / Fold of efficacious dose; 30 mg/kg: CMPD 4, dog 20 mg/kg
[27] = tested on: LS174T; assay: LS174T basal WNT-pathway luciferase reporter
[28] = tested on: p-STAT1^SER727; assay: Inhibition of STAT1 SER727 phosphorylation in cells (target-engagement biomarker)
[29] = Caco-2 permeability; type: in vitro ADME; conditions: human
[30] = tested on: RKO; assay: 14 d colony growth assay, RKO; type: cell-based, human; conditions: 350 nM, mean (range), n = 2
[31] = tested on: SW620; assay: 14 d colony growth assay, SW620; type: cell-based, human; conditions: 350 nM, mean (range), n = 2
[32] = tested on: SW837; assay: 14 d colony growth assay, SW837; type: cell-based, human; conditions: 350 nM, mean (range), n = 2
[33] = low dose 5 mg/kg daily oral for 14 days

Compound: Cn1ncc2cc(-c3cnc(N)c(Cl)c3N3CCC4(CCNC4=O)CC3)ccc21 [CMPD 3]
- Mouse PK Cl ([1]; 0.2mg/kg i.v.): 0.61 L/h/kg
- Mouse PK Vd ([1]; 0.2mg/kg i.v.): 0.63 L/kg
- Rat PK Cl ([2]; 0.2mg/kg i.v.): 1.49 L/h/kg
- Rat PK Vd ([2]; 0.2mg/kg i.v.): 1.99 L/kg
- Dog PK Cl [3]: 1.07 L/h/kg
- Dog PK Vd [3]: 1.4 L/kg
- Off-target activities in protein kinase panel [4]: No off-target activities were detected
- IC50 [5]: 15 nM
- IC50 [6]: 173 nM
- IC50 [7]: 28 nM
- IC50 [8]: 39 nM
- IC50 [9]: > 30 µM
- IC50 [10]: 14 nM
- TGI ([11]; 5 x 1 mg/kg x doses/day, day 14, nr = no response, P ns): nr
- TGI ([11]; 10 x 1 mg/kg x doses/day, day 14, P ns): 33%
- TGI ([11]; 30 x 1 mg/kg x doses/day, day 14, 8 mice, P <0.05): 48%
- TGI ([11]; 30 x 1b mg/kg x doses/day, day 14, 9 mice, P <0.01): 44%
- TGI ([11]; 30 x 2 (5/7 d) and x 1 (2/7 d)e mg/kg x doses/day, day 14, P <0.01): 44%
- TGI ([12]; 30 x 1 (5/7 d) mg/kg x doses/day, day 21, P <0.001): 55%
- Time biomarker (p-STAT1^SER727) inhibition maintained ([13]; SW620 tumor xenografts, single treatment with 30 mg/kg): approximately 10 hr
- TGI ([14]; 10 mg/kg po qd monotherapy): 100%
- Target organs ([15]; high dose 20 mg/kg daily oral for 14 days (CMPD 3)): Bone, bone marrow, heart, liver, lung, lymph nodes, pancreas, reproductive tract (m and f), spleen, thymus.
- Target organs [15, 33]: Bone, bone, marrow, heart, liver, lung, lymph nodes, pancreas, reproductive tract (m), spleen, thymus.
- Target organs ([15]; mid dose 10 mg/kg daily oral for 14 days (CMPD 3)): Bone, bone marrow, heart, liver, lung, lymph nodes, pancreas, reproductive tract (m and f), spleen, thymus.
- GI50 [16]: > 30 µM
- GI50 [17]: > 30 µM
- GI50 [18]: > 30 µM
- GI50 [19]: > 30 µM
- GI50 [20]: > 30 µM
- GI50 [21]: 6.67 µM
- GI50 [22]: 1860 nM
- GI50 [23]: 3.11 µM
- GI50 [24]: > 30 µM
- GI50 [25]: > 30 µM
- Target organs [26, 33]: Bone marrow, gastrointestinal mucosa, heart, lymphatic system
- IC50 ([27]; Homo sapiens, LS174T, read-out: LS174T IC50): 33.3 ± 12.8 nM
- IC50 ([28]; read-out: p-STAT1^SER727 IC50, mean ± s.d. or *± range): 22 ± 12 nM
- IC50 ([28]; read-out: p-STAT1^SER727 IC50; mean ± s.d. or *± range): 25.5 ± 12 nM

Compound: Cc1n[nH]c2ncc(C(=O)N3CCC[C@H]3c3ccc(Cl)cc3)cc12 [CMPD 4]
- efflux ratio [29]: 1.49
- Mouse PK Cl ([1]; 0.2mg/kg i.v.): 1.37 L/h/kg
- Mouse PK F ([1]; 0.2mg/kg i.v. or 0.5mg/kg p.o.): 25%
- Vd ([1]; female, NMRI, mouse, in vivo, iv, 0.2mg/kg i.v.): 0.59 L/kg
- Rat PK Vd ([2]; 0.2mg/kg i.v.): 1.62 L/kg
- Rat PK F ([2]; 0.2mg/kg i.v. or 0.5mg/kg p.o.): 66%
- clearance ([2]; male, Wistar, rat, in vivo, iv, 0.2mg/kg i.v., read-out: Rat PK Cl (converted)): 25 mL/min/kg
- Dog PK Cl [3]: 1.35 L/h/kg
- Dog PK Vd [3]: 1.47 L/kg
- Dog PK F ([3]; 0.2mg/kg i.v. or 0.5mg/kg p.o.): 39%
- IC50 [5]: 9 nM
- IC50 [6]: 97 nM
- IC50 [7]: 31 nM
- IC50 [8]: 31 nM
- IC50 [9]: > 30 µM
- IC50 [10]: 8 nM
- 14 d colony growth (relative to control) [30]: 0.98 (0.07)
- 14 d colony growth (relative to control) [31]: 0.17 (0.01)
- 14 d colony growth (relative to control) [32]: 0.54 (0.03)
- TGI ([11]; 5 x 2 mg/kg x doses/day, day 13, nr = no response, P ns): nr
- TGI ([11]; 10 x 1 mg/kg x doses/day, day 13, nr = no response, P ns): nr
- TGI ([11]; 50 x 2b mg/kg x doses/day, day 16, P ns): 51%
- TGI ([11]; 100 x 1 mg/kg x doses/day, day 16, P ns): 43%
- TGI ([12]; 50 x 2 mg/kg x doses/day, day 22, P ns): 52%
- TGI ([12]; 100 x 1 mg/kg x doses/day, day 22, P ns): 30%
- Time pathway biomarker (p-STAT1^SER727) inhibited ([13]; SW620 xenografts, 10 mg/kg): 6 h
- Target inhibition by p-STAT1^SER727 ([14]; 2 hr post-treatment): near maximal target inhibition
- Fold of efficacious dose; 10 mg/kg ([15]; CMPD 4, rat 10 mg/kg, female): ~2.4
- Fold of efficacious dose; 30 mg/kg ([15]; CMPD 4, rat 10 mg/kg, female): ~0.8
- Fold of efficacious dose; 10 mg/kg ([15]; CMPD 4, rat 10 mg/kg, male): ~0.9
- Fold of efficacious dose; 30 mg/kg ([15]; CMPD 4, rat 10 mg/kg, male): ~0.3
- Fold of efficacious dose; 10 mg/kg ([15]; CMPD 4, rat 20 mg/kg, female): ~5.7
- Fold of efficacious dose; 30 mg/kg ([15]; CMPD 4, rat 20 mg/kg, female): ~1.9
- Fold of efficacious dose; 10 mg/kg ([15]; CMPD 4, rat 20 mg/kg, male): ~3.9
- Fold of efficacious dose; 30 mg/kg ([15]; CMPD 4, rat 20 mg/kg, male): ~1.3
- Fold of efficacious dose; 10 mg/kg ([15]; CMPD 4, rat 60 mg/kg, female): ~23.1
- Fold of efficacious dose; 30 mg/kg ([15]; CMPD 4, rat 60 mg/kg, female): ~7.7
- Fold of efficacious dose; 10 mg/kg ([15]; CMPD 4, rat 60 mg/kg, male): ~10.8
- Fold of efficacious dose; 30 mg/kg ([15]; CMPD 4, rat 60 mg/kg, male): ~3.6
- Target organs ([15]; high dose 60 mg/kg daily oral for 14 days): Bone, bone marrow, brain, heart, intestines, liver, lung, lymph nodes, mammary gland, pancreas, reproductive tract (m and f), skin, spleen, stomach, thymus
- Target organs ([15]; low dose 10 mg/kg daily oral for 14 days (CMPD 4)): Bone, bone marrow, intestines, liver, lung, lymph nodes, mammary gland, pancreas, reproductive tract (m and f), skin, spleen, stomach, thymus.
- Target organs ([15]; mid dose 20 mg/kg daily oral for 14 days (CMPD 4)): Bone, bone marrow, heart, intestines, liver, lung, lymph nodes, mammary gland, pancreas, reproductive tract (m and f), skin, spleen, stomach, thymus
- GI50 [16]: > 30 µM
- GI50 [17]: > 30 µM
- GI50 [18]: > 30 µM
- GI50 [19]: > 30 µM
- GI50 [20]: > 30 µM
- GI50 [21]: > 30 µM
- GI50 [22]: > 30000 nM
- GI50 [23]: > 30 µM
- GI50 [24]: > 30 µM
- GI50 [25]: > 30 µM
- Fold of efficacious dose; 10 mg/kg ([26]; female): ~46
- Fold of efficacious dose; 30 mg/kg ([26]; female): ~15
- Fold of efficacious dose; 10 mg/kg ([26]; male): ~22
- Fold of efficacious dose; 30 mg/kg ([26]; male): ~7
- Target organs ([26]; low dose 20 mg/kg daily oral for 14 days): Bone marrow, heart, Intestines, lymphatic system
- IC50 ([27]; Homo sapiens, LS174T, read-out: LS174T IC50, basal WNT-pathway luciferase reporter, mean ± s.d. or *± range): 29.5 ± 9.5 nM
- IC50 ([27]; read-out: LS174T IC50, basal WNT-pathway luciferase reporter, mean ± s.d. or *± range): 36.2 ± 9.5 nM
- IC50 ([28]; read-out: p-STAT1^SER727 IC50): 7.7 ± 2.2 nM
